From patent US9107909B2, “Materials and methods to enhance hematopoietic stem cells engraftment procedures” (priority 2008, dated 2015)

Experiments:
[1] = system: UCB CD34+ cells; assay: Migration of human UCB CD34+ cells to rhSDF-1; assay type: cell-based; conditions: pulse exposure
Experimental: Freshly isolated UCB CD34^+ cells were pulsed with dmPGE2 or vehicle for 2 hours, washed and resuspended in media with 10% HI-FCS and cultured at 37° C. for 16 hours. After incubation, cells were washed, resuspended in RPMI/0.5% BSA and migration to rhSDF-1 measured by flow cytometry. To block the CXCR4 receptor, replicate cells were incubated with 5 micrograms/ml AMD3100 for 30 minutes prior to the migration assay. Referring now to FIG. 10, the data are the Mean±SEM percentage migration for 3 experiments.

[2] = system: Survivin in CD34+ UCB cells; assay: Intracellular Survivin by FACS, human CD34+ UCB cells; assay type: cell-based; conditions: 24 hours post-pulse, vs control
Description: All antibodies were purchased from BD Biosciences unless otherwise noted. For detection and sorting of murine KL and SKL cells, streptavidin conjugated with PE-Cy7 (to stain for biotinylated MACS lineage antibodies (Miltenyi Biotech, Auburn, Calif.)), c-kit-APC, Sca-1-PE or APC-Cy7, CD45. 1-PE and CD45.2-FITC were used. UCB CD34^+ cells were detected using anti-human-CD34-APC. For multilineage analysis, APC-Cy7-Mac-1, PE-Cy7-B-220 and APC-CD3 were used. EP receptors were detected with anti EP1, EP2, EP3 and EP4 rabbit IgG (Cayman Chemicals) and secondary staining with FITC-goat-anti-rabbit IgG (Southern Biotech, Birmingham, Ala.). CXCR4 expression was analyzed using streptavidin-PECy7, c-kit-APC, Sca-1-APC-Cy7, and CXCR4-PE. Apoptosis was measured with FITC-Annexin-V. For Survivin and active caspase-3 detection, cells were permeabilized and fixed using the CytoFix/CytoPerm kit (BD) and stained with anti-active-caspase-3-FITC Flow Kit (BD) or Survivin-PE (R&D Systems).
Expression of EP receptors, CXCR4 and Survivin Replicate Lin^neg cell samples from CD45.2 mice were stained for SKL and each of the EP receptors and surface receptor expression on KL and SKL cells determined by FACS. […] Replicate cells were stained for CD34 and each of the EP receptors and surface expression determined by FACS. […]

[3] = system: SKL cells; assay: Transwell migration of murine SKL cells to rmSDF-1α; assay type: cell-based, mouse; conditions: pulsed 2 hours, cultured 16 hours, migration 4 hours; vs vehicle
Experimental: Freshly isolated Lineage^neg mouse bone marrow cells were pulsed with dmPGE2 or vehicle for 2 hours, washed and resuspended in media with 10% HI-FCS and cultured at 37° C. for 16 hours. After incubation, cells were washed, resuspended in RPMI/0.5% BSA and allowed to migrate in transwells to rmSDF-1α for 4 hours. Total cell migration was measured by flow cytometry. Referring now to FIG. 9, total SKL cell migration was higher for cells pulsed with dmPGE2. Data are the Mean±SEM percent migration for 3 experiments. ^†P<0.05 for dmPGE2 treated cells compared to cells treated with vehicle.

| SMILES | migration of human CD34+ cells to SDF-1α [1] | increase in intracellular Survivin, CD34+ UCB cells [2] [fold] | total SKL cell migration to rmSDF-1α [3] |
| --- | --- | --- | --- |
| CCCCC[C@H](O)/C=C/[C@H]1[C@H](O)CC(=O)[C@@H]1C/C=C\CCCC(=O)O [PGE2, Prostaglandin E2] | Increases Migration | – | – |
| CCCCC(C)(C)[C@H](O)/C=C/[C@H]1[C@H](O)CC(=O)[C@@H]1C/C=C\CCCC(=O)O [dmPGE2, 16,16-dimethyl prostaglandin E2] | – | 2.4 | higher |
